Values quoted from earlier work, collected in patent US8197866B1, “Herbal treatment for diabetes mellitus, type II” (priority 2009, dated 2012).

Assays:
[1] = system: streptozocin-induced diabetes
[2] = system: TPA-mediated tumor promotion

SMILES	anti-diabetic activity [1]	effect on TPA-mediated tumor promotion [2]
C[C@@H]1O[C@@H](OC[C@H]2O[C@@H](Oc3cc(O)cc4oc(-c5ccc(O)c(O)c5)cc(=O)c34)[C@H](O)[C@@H](O)[C@@H]2O)[C@H](O)[C@H](O)[C@H]1O [luteolin 5-rutinoside]	marked anti-diabetic activity	
O=c1cc(-c2ccc(O)cc2)oc2cc(O)cc(O)c12 [apigenin]		inhibitory effect
